# Data reported in patent US20040001791A1, “Composition, method of use, and devices for the treatment of onychomycosis” (priority 2000, published 2004).
# Entries after “also recorded” stand apart in the source; their conditions may differ.
# What was measured:
# [1] = system: fungal infected fingernail (onychomycosis); test: Topical treatment of a fungal infected fingernail in a patient; format: in vivo, human
# Description: The copper sulfate solution was applied to their fingernails for approximately thirty minutes and then allowed to air dry. Excess copper sulfate powder was removed by washing two-three times with water. […] Monthly, the copper sulfate solution was applied as given above to the infected fingernail and to all fingernails on the same hand.
# The bandage was applied to the infected nail and secured in place. Care was given to ensure that the solution soaked into the crevice along the edge of the nail bed and cuticle. […] The bandage was worn for two days and then replaced with a clean dry bandage to protect the nail from snagging. The treatment was repeated on Day 31 and again on Day 45; no further treatments were given.
# fungal infected toe nail = test: Topical treatment of a fungal infected toe nail in a patient; format: in vivo, human; conditions: aqueous 10% (w/v) solution applied approximately thirty minutes, air dried, washed with water, Example 2 repeated monthly
# Description: As the treated nail grew, healthy nail tissue appeared at the base of the nail bed while the infected portion of the nail was pushed off the nail bed and periodically trimmed away. […] A patient diagnosed as having a fungal infected toe nail began treatment by applying with a cotton swab an aqueous 10% (w/v) copper(II)sulfate pentahydrate solution to the infected nail as well as to all nails on the same foot. […] As the treated nail grew, healthy nail tissue appeared at the base of the nail bed while the infected portion of the nail was pushed off the nail bed and periodically trimmed away. […] The infected portion of the patient's nail continued to have a bluish color.
SMILES,"Nail examination after treatment ([1]; person, right index fingernail, 10% aqueous solution with trace of detergent on bandage worn two days, Day 1, 31, 45, examined Day 132)","Outcome of toe nail treatment (spread of fungal infection, nail condition) (fungal infected toe nail)","Outcome of fingernail treatment (spread of fungal infection, nail condition) ([1]; patient, aqueous 10% (w/v) solution applied approximately thirty minutes, washed, repeated monthly)"
O=S(=O)([O-])[O-].[Cu+2] [copper sulfate],New pink nail growth was present from the cuticle to a point midway along the nail,,
O.O.O.O.O.O=S(=O)([O-])[O-].[Cu+2] [copper(II)sulfate pentahydrate],,the fungal infection did not spread to healthy nail tissue; also recorded: resulting in a normal healthy nail,resulting in a normal healthy nail
